In US20060246106A1, “Infection resistant medical implants” (priority 2005, published 2006):
Converted amounts (≈) assume the structure as drawn. Like-named read-outs stand apart in the source and are kept apart here.

Legend:
[1] = elution rate: rifampicin/tobramycin content remaining on the graft; type: in vivo; conditions: graft harvested from dog, one line per dog; for concentration at 7 days / concentration at 14 days / concentration at 21 days: dog, explanted graft, other: graft implanted end to end in the infrarenal aorta
Description: Two grafts were harvested after week 1, two grafts after week 2 and the final two grafts were harvested after week 3. Immediately after harvesting, the grafts were prepared for antibiotic analysis. […] The graft samples required the rifampicin to be extracted from the graft material. The extraction procedure was as follows. A volume of methanol equivalent to 3 times the dry weight of the graft was added. […] The supernatant was then injected directly into the HPLC. […] The graft samples required the tobramycin to be extracted from the graft material. The extraction procedure was as follows. […] The supernatant was then injected directly into the PFIA. The extraction was repeated on the same graft sample to ensure that all the tobramycin had been extracted.

[2] = dog, in vivo
Description: (§1) Serum samples were collected from the dogs at the same time as the samples for liver and kidney function tests.
(§2) The analytical method for graft samples and serum samples was identical. The method used a HPLC system with a Hypersil 5 ODS column with UV detection at a wavelength of 254 nm. The mobile phase used was a 70:30 0.2M phosphate buffer pH 6.0: acetonitrile. The limit of detection for this method is 0.1 mg/Kg graft or 0.1 mg/litre serum.
(§3) These samples were mixed 50:50 with methanol and left to stand for 1 minute. After this time the solution was centrifuged for 5 minutes at maximum speed in a Microcentaur centrifuge. The supernatant was then used for analysis.
(§4) The analytical method for serum samples and graft samples was identical. The technique used to measure the tobramycin was Polarisation FluoroImmuno Assay (PFIA) using an Abbott FLX instrument using the reverse dilution protocol with a sample volume of 5 μl. The limit of detection for this method is 0.4 mg/Kg graft or 0.4 mg/litre serum.
(§5) The serum samples were analysed directly using the Abbot FLX instrument.

Escherichia coli = experiment: MIC/MBC, antibiotic dilutions in Mueller-Hinton Broth; type: cell-based; conditions: E. coli, antibiotic alone
Description: The term “MIC” refers to the lowest concentration of antibiotic that inhibits in vitro bacterial growth. The term “MBC” refers to the lowest concentration of antibiotic that totally kills 99.9% of the inoculum. The principle of the test is to add dilutions of an antibiotic to Mueller-Hinton Broth and a standard concentration of the inoculum. Tubes are incubated overnight and read visually for turbidity. The lowest concentration showing no visible growth is the MIC. To establish the MBC broth cultures showing no visible growth are sub-cultured onto appropriate agar and incubated to determine if the organism has been killed.

in vivo = conditions: dog
Description: as §1, §2, §3, §4, §5

## NC[C@H]1O[C@H](O[C@H]2[C@H](O)[C@@H](O[C@H]3O[C@H](CO)[C@@H](O)[C@H](N)[C@H]3O)[C@H](N)C[C@@H]2N)[C@H](N)C[C@@H]1O [Tobramycin, tobramycin]
[1]; Implant Duration 7 Days, read-out: Tobramycin Content, 1st Extraction
  concentration at 7 days: 4800 ng/g
[1]; Implant Duration 7 Days, read-out: Tobramycin Content, 2nd Extraction
  concentration at 7 days: < 400 ng/g
[1]; Implant Duration 7 Days, read-out: Tobramycin Content, Total
  concentration at 7 days: 4800 ng/g
[1]; Implant Duration 14 Days, read-out: Tobramycin Content, 1st Extraction
  concentration at 14 days: 510 ng/g
[1]; Implant Duration 14 Days, read-out: Tobramycin Content, 2nd Extraction
  concentration at 14 days: < 400 ng/g
[1]; Implant Duration 14 Days, read-out: Tobramycin Content, Total
  concentration at 14 days: 510 ng/g
[1]; Implant Duration 21 Days, read-out: Tobramycin Content, 1st Extraction
  concentration at 21 days: < 400 ng/g
[1]; Implant Duration 21 Days, read-out: Tobramycin Content, 2nd Extraction
  concentration at 21 days: < 400 ng/g
[1]; Implant Duration 21 Days, read-out: Tobramycin Content, Total
  concentration at 21 days: < 400 ng/g
[1]; Implant Duration 7 Days
  Tobramycin Content, 1st Extraction: 3.96 mg/Kg graft
  Tobramycin Content, 2nd Extraction: <0.4 mg/Kg graft
  Tobramycin Content, Total: 3.96 mg/Kg graft
[1]; Implant Duration 14 Days
  Tobramycin Content, 1st Extraction: <0.4 mg/Kg graft
  Tobramycin Content, 2nd Extraction: <0.4 mg/Kg graft
  Tobramycin Content, Total: <0.4 mg/Kg graft
[1]; Implant Duration 21 Days
  Tobramycin Content, 1st Extraction: <0.4 mg/Kg graft
  Tobramycin Content, 2nd Extraction: <0.4 mg/Kg graft
  Tobramycin Content, Total: <0.4 mg/Kg graft
[2]
  tobramycin present in the serum of the test dogs: no detectable amount
[2]; 1 day
  Tobramycin Content (serum): <0.4 mg/litre serum
[2]; 3 day
  Tobramycin Content (serum): <0.4 mg/litre serum
[2]; 7 day
  Tobramycin Content (serum): <0.4 mg/litre serum
[2]; 14 day
  Tobramycin Content (serum): <0.4 mg/litre serum
[2]; 21 day
  Tobramycin Content (serum): <0.4 mg/litre serum
Escherichia coli
  MBC: 6.25 µg/mL (≈ 13.4 µM)
  MIC: 3.12 µg/mL (≈ 6.67 µM)
In vivo
  concentration at 1 day: < 400 ng/mL
  concentration at 3 day: < 400 ng/mL
  concentration at 7 day: < 400 ng/mL
  concentration at 14 day: < 400 ng/mL
  concentration at 21 day: < 400 ng/mL

## CO[C@H]1/C=C/O[C@@]2(C)Oc3c(C)c(O)c4c(O)c(c(/C=N/N5CCN(C)CC5)c(O)c4c3C2=O)NC(=O)/C(C)=C\C=C\[C@H](C)[C@H](O)[C@@H](C)[C@@H](O)[C@@H](C)[C@H](OC(C)=O)[C@@H]1C [Rifampicin, rifampicin]
[1]; Implant Duration 7 Days, read-out: Rifampicin Content, 1st Extraction
  concentration at 7 days: 890 ng/g
[1]; Implant Duration 7 Days, read-out: Rifampicin Content, 2nd Extraction
  concentration at 7 days: < 100 ng/g
[1]; Implant Duration 7 Days, read-out: Rifampicin Content, Total
  concentration at 7 days: 890 ng/g
[1]; Implant Duration 14 Days, read-out: Rifampicin Content, 1st Extraction
  concentration at 14 days: 730 ng/g
[1]; Implant Duration 14 Days, read-out: Rifampicin Content, 2nd Extraction
  concentration at 14 days: < 100 ng/g
[1]; Implant Duration 14 Days, read-out: Rifampicin Content, Total
  concentration at 14 days: 730 ng/g
[1]; Implant Duration 21 Days, read-out: Rifampicin Content, 1st Extraction
  concentration at 21 days: 340 ng/g
[1]; Implant Duration 21 Days, read-out: Rifampicin Content, 2nd Extraction
  concentration at 21 days: < 100 ng/g
[1]; Implant Duration 21 Days, read-out: Rifampicin Content, Total
  concentration at 21 days: 340 ng/g
[1]; Implant Duration 7 Days
  Rifampicin Content, 1st Extraction: 0.94 mg/Kg graft
  Rifampicin Content, 2nd Extraction: <0.1 mg/Kg graft
  Rifampicin Content, Total: 0.94 mg/Kg graft
[1]; Implant Duration 14 Days
  Rifampicin Content, 1st Extraction: 1.24 mg/Kg graft
  Rifampicin Content, 2nd Extraction: <0.1 mg/Kg graft
  Rifampicin Content, Total: 1.24 mg/Kg graft
[1]; Implant Duration 21 Days
  Rifampicin Content, 1st Extraction: 0.52 mg/Kg graft
  Rifampicin Content, 2nd Extraction: <0.1 mg/Kg graft
  Rifampicin Content, Total: 0.52 mg/Kg graft
[2]; 1 day
  quantity of rifampicin equated to an average human: 1.15 mg
Escherichia coli
  MBC: 32.5 µg/mL (≈ 39.5 µM)
  MIC: 16.2 µg/mL (≈ 19.7 µM)
In vivo
  concentration at 1 day: 230 ng/mL
  concentration at 3 day: < 100 ng/mL
  concentration at 7 day: < 100 ng/mL
  concentration at 14 day: < 100 ng/mL
  concentration at 21 day: < 100 ng/mL
